Assays:
[1] = target: Cyclin-dependent kinase 2 (Homo sapiens, UniProt P24941)
Description: Inhibition of CDK2/Cyclin E

[2] = target: Cyclin-dependent kinase 4/cyclin D1 (Homo sapiens, UniProt P11802)
Description: Inhibition of CDK4/Cyclin D1

[3] = target: Cyclin-dependent kinase 1 (Homo sapiens, UniProt P06493)
Description: Inhibition of CDK1/Cyclin B

[4] = in vivo; details: nude, mouse, iv, 10 mg/kg
Description: Clearance in nude mouse at 10 mg/kg, iv

[5] = in vivo; details: nude, mouse, iv, 10 mg/kg; remark: listed apart in the source
Description: Volume of distribution in nude mouse at 10 mg/kg, iv

Chain of Cyclin-dependent kinase 4/cyclin D1 (P11802 whole entry): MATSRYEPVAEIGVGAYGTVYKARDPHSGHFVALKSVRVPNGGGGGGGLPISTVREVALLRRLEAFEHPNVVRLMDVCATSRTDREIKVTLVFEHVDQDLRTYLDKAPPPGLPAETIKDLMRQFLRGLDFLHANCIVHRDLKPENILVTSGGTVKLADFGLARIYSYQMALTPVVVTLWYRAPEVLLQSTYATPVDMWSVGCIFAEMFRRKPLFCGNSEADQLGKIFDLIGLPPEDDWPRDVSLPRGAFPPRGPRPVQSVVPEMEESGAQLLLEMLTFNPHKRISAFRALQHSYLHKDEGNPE
Chain of Cyclin-dependent kinase 4/cyclin D1 (P24385 whole entry, further chain): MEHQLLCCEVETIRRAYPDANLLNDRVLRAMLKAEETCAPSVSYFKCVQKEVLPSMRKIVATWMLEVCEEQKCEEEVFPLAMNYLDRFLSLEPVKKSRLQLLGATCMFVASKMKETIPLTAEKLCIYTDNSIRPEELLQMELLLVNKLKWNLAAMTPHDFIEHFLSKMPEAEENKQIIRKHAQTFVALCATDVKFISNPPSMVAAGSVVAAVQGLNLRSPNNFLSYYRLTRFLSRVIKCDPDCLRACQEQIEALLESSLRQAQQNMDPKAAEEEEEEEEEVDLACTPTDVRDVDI
Chain of Cyclin-dependent kinase 1 (P06493 whole entry): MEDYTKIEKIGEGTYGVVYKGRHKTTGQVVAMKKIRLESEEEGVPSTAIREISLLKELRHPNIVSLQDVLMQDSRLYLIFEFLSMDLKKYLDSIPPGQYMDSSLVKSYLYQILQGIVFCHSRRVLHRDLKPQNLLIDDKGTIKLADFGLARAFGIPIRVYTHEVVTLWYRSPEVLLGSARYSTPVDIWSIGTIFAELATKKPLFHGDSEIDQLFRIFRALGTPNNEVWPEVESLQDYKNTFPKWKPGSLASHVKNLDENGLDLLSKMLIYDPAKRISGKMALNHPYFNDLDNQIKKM

Ki [1] [µM]	Ki [2] [µM]	Ki [3] [µM]	clearance [4] [mL/min/kg]	Vd [5] [L/kg]	Compound
> 10	> 1	> 10	–	–	CN1CCN(c2ccc(Nc3ncc(C(=O)c4cccc(C(F)(F)F)c4)c(N)n3)cc2)CC1
0.597	0.11	0.246	–	–	CCOC(=O)N1CCC(Nc2ncc(C(=O)c3ccccc3OC)c(N)n2)CC1
3.14	0.734	1.64	–	–	CCOC(=O)N1CCC(Nc2ncc(C(=O)c3ccccc3F)c(N)n2)CC1
> 10	0.584	> 10	–	–	Cc1ccccc1C(=O)c1cnc(Nc2ccc(N3CCN(C)CC3)cc2)nc1N
0.007	0.007	0.014	48.3	0.885	COc1ccc(F)cc1C(=O)c1cnc(NC2CCN(S(C)(=O)=O)CC2)nc1N
1.76	0.409	1.53	–	–	CCNC(=O)N1CCC(Nc2ncc(C(=O)c3ccccc3OC)c(N)n2)CC1
0.051	0.016	0.043	–	–	CCS(=O)(=O)N1CCC(Nc2ncc(C(=O)c3ccccc3OC)c(N)n2)CC1
2.03	0.986	2.5	–	–	CCOc1ccccc1C(=O)c1cnc(NC2CCN(C(C)=O)CC2)nc1N
> 10	> 1	> 10	–	–	COc1cccc(C(=O)c2cnc(Nc3ccc(N4CCN(C)CC4)cc3)nc2N)c1
> 10	> 1	6.62	–	–	COc1ccccc1C(=O)c1cnc(NC2CCN(C)CC2)nc1N
0.451	0.036	0.133	–	–	COc1ccc(Cl)cc1C(=O)c1cnc(NC2CCN(S(C)(=O)=O)CC2)nc1N
0.327	0.066	0.181	–	–	COc1ccccc1C(=O)c1cnc(NC2CCN(C(C)=O)CC2)nc1N
0.886	0.098	0.278	–	–	CCCC(=O)N1CCC(Nc2ncc(C(=O)c3ccccc3OC)c(N)n2)CC1
> 10	0.45	> 10	–	–	CN1CCN(c2ccc(Nc3ncc(C(=O)c4cccc(F)c4)c(N)n3)cc2)CC1
0.013	0.003	0.017	–	–	COc1cccc(F)c1C(=O)c1cnc(NC2CCN(S(C)(=O)=O)CC2)nc1N
0.084	0.021	0.193	–	–	COc1cc(F)ccc1C(=O)c1cnc(NC2CCN(S(C)(=O)=O)CC2)nc1N
5.14	0.159	1.26	–	–	COc1ccccc1C(=O)c1cnc(Nc2ccc(N3CCN(C)CC3)cc2)nc1N
2.17	0.665	1.11	–	–	CCOC(=O)N1CCC(Nc2ncc(C(=O)c3ccccc3C)c(N)n2)CC1
0.002	0.001	0.005	–	–	COc1cc(F)c(F)c(F)c1C(=O)c1cnc(NC2CCN(S(C)(=O)=O)CC2)nc1N
0.495	0.267	1.67	–	–	COc1c(C(=O)c2cnc(NC3CCN(S(C)(=O)=O)CC3)nc2N)cc(F)c(F)c1F
0.015	0.017	0.038	–	–	CS(=O)(=O)N1CCC(Nc2ncc(C(=O)c3c(F)cccc3F)c(N)n2)CC1
6.27	0.481	5.84	–	–	COc1ccccc1C(=O)c1cnc(NC2CCNCC2)nc1N
0.006	0.006	0.014	–	–	COc1cc(F)c(F)cc1C(=O)c1cnc(NC2CCN(S(C)(=O)=O)CC2)nc1N
> 10	0.821	> 10	–	–	CN1CCN(c2ccc(Nc3ncc(C(=O)c4ccccc4C(F)(F)F)c(N)n3)cc2)CC1
